Values after ≈ are worked out from the molar mass of the structure shown.
Assays:
in vitro = conditions: BEND-3 endothelial cells expressing VEGF receptor
Procedure: Bovine endothelial cells (BEND-3) expressing vascular endothelial growth factor (VEGF) receptor were incubated (37° C., 6 hours) in the growth medium containing 0.03–90 microgram/mL of the free (i.e. non-encapsulated) vinorelbine, or vinorelbine encapsulated in the Ni-NTA-PEG-DSPE liposomes with or without 0.02 mg/niL of the intemalizing anti-VEGER scFv antibody 4G7 having a hexahistidine tag and a terminal cysteine group. The cells were post-incubated in the growth medium without the drug for another 72 hours, and the viability of the cells was determined by a conventional tetrasolium (MTT) assay.

[1] = Methotrexate encapsulation by reverse phase evaporation (direct sequestration) and leakage; type: physicochemical

SMILES	IC50 at 6 h (in vitro)	MTX loading efficiency [1]
CN(Cc1cnc2nc(N)nc(N)c2n1)c1ccc(C(=O)N[C@@H](CCC(=O)O)C(=O)O)cc1 [free methotrexate, methotrexate]	> 90 µg/mL	28.7–29.5%
CCC1=C[C@@H]2CN(C1)Cc1c([nH]c3ccccc13)[C@@](C(=O)OC)(c1cc3c(cc1OC)N(C)[C@H]1[C@@](O)(C(=O)OC)[C@H](OC(C)=O)[C@]4(CC)C=CCN5CC[C@]31[C@@H]54)C2 [free vinorelbine, vinorelbine]	0.67 µg/mL (≈ 0.86 µM)	

From US7045283B2, “Methods of high-throughput screening for internalizing antibodies” (The Regents of the University of California, priority 2000, dated 2006)
